Experimental data: publication PMC5442318, “Hundreds of dual-stage antimalarial molecules discovered by a functional gametocyte screen” (Nature Communications, 2017)
Read-outs that look alike come from different tables or passages of the source.

Assays:
[1] = system: P. falciparum stage V female gametocytes; assay: P. falciparum female gametocyte activation assay (Pf FGAA), 24 h or 48 h preincubation, Pfs25 expression readout; format: cell-based, Plasmodium falciparum NF54; settings: mean, read-out: Gametocytes mean Pf FGAA IC50
Procedure, shortened: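 Purified stage V gametocytes from P. falciparum NF54 gametocyte cultures were exposed to compounds for 24 h or 48 h at 37 °C under 3% O2/5% CO2, then activated by temperature drop plus xanthurenic acid. Activated females were stained with Cy3-anti-Pfs25 (0.5 μg ml^−1) for 24 h at 26 °C and counted by high-content imaging; pIC50 by nonlinear regression.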

[2] = system: P. falciparum stages IV–V gametocytes; assay: Gametocytocidal ATP-depletion assay (gametocyte ATP bioluminescence); format: cell-based, Plasmodium falciparum
Procedure, shortened: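 Purified stage IV–V gametocytes (12,500/well) incubated with compound for 48 h at 37 °C under 3% O2/5% CO2. ATP measured by BacTiter-Glo luminescence as a viability surrogate; hits tested at 2 μM single concentration.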

[3] = system: HepG2 cells; assay: HepG2 cytotoxicity assay; format: cell-based
Procedure, shortened: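 After compound incubation, plates and CellTiter-Glo reagent were brought to room temperature for 30 min. The reagent was then added, and luminescence was read after a 10 min room-temperature stabilization.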

[4] = system: P. falciparum asexual blood stages; settings: read-out: Pf Asexual blood stages XC50, cited from earlier work
[5] = TCAMS data, ref 1 (Gamo et al., 2010)
[6] = TCAMS asexual blood stage data, ref 1 (Gamo, F. J. et al., Nature 465, 305-310, 2010)
[7] = P. falciparum female gametocytes

SMILES | IC50 [1] | IC50 ([1]; P. falciparum female gametocyte activation assay) | IC50 [1, 7] | Gametocytes mean ATP inhibition at 2µM (%) [2] | HepG2 cells mean TOX50 ([3]; mean) | IC50 [4, 5] | Gametocytes mean ATP inhibition at 2µM [2] | HepG2 cells mean TOX50 ([3]; mean; HepG2 cells) | IC50 [4, 6] | HepG2 cells mean TOX50 ([3]; HepG2 cells; mean)
Cc1cc(N)c2cc(NC(=O)c3cc(C(F)(F)F)cc(C(F)(F)F)c3)ccc2n1.Cl [TCMDC-139377] | 0.86 µM |  |  | 0.86% | 2.60 µM | 0.09 µM |  |  |  | 
CCCCSc1c(CNCCCCCCNCc2ccc3ccccc3c2SCCCC)ccc2ccccc12.CS(=O)(=O)O [TCMDC-137825] | 0.97 µM |  |  | 10.43% | 2.76 µM | 1 µM |  |  |  | 
CC(C)c1ccc(CN2CCC(CNC(=O)c3cc(-c4ccccc4F)cs3)C2)cc1.O=C(O)C(F)(F)F (stereo not shown) [TCMDC-134436] |  |  | 1.08 µM |  |  |  | -11.71% |  | 0.99 µM | 9.14 µM
CC(C)(C)c1ccc(CN2CCC(CNC(=O)c3cc(-c4ccccc4F)cs3)C2)cc1.O=C(O)C(F)(F)F (stereo not shown) [TCMDC-134443] |  |  | 0.83 µM |  |  |  | -4.04% |  | 0.56 µM | 9.30 µM
COc1c(CCNCCCCNCCc2cc(Cl)c3ccccc3c2OC)cc(Cl)c2ccccc12.CS(=O)(=O)O [TCMDC-137869] | 0.33 µM |  |  | 96.85% | 1.78 µM | 0.17 µM |  |  |  | 
CC(C)(C)c1ccc(CN2CCC(CNC(=O)c3cc(-c4cccc(F)c4)cs3)C2)cc1.O=C(O)C(F)(F)F (stereo not shown) [TCMDC-134444] |  |  | 1.32 µM |  |  |  | 0.99% |  | 0.9 µM | 6.61 µM
CS(=O)(=O)O.FC(F)(F)COc1ccc2ccccc2c1CCNCCCCNCCc1c(OCC(F)(F)F)ccc2ccccc12 [TCMDC-137317] | 1.01 µM |  |  | 88.24% | 2.09 µM | 0.43 µM |  |  |  | 
CC1(C)CC(NCCCCCCCOc2ccc(OCc3ccccc3)cc2)CC(C)(C)N1.Cl [TCMDC-138958] | 1.23 µM |  |  | 38.17% | 2.75 µM | 0.83 µM |  |  |  | 
CCn1c(-c2nonc2N)nc2c(-c3cccc(NC(=O)Nc4ccc(C(F)(F)F)cc4)c3)ncc(OCCCN)c21.O=C(O)C(F)(F)F [TCMDC-136179] | 0.91 µM |  |  | -5.44% | 5.62 µM | 1.05 µM |  |  |  | 
CCC1CN2CCc3cc(OC)c(OC)cc3C2CC1CC1NCCc2cc(OC)c(OC)cc21 (stereo not shown) [TCMDC-125849] |  |  | 1.82 µM |  |  |  | 60.00% |  | 0.15 µM | 2.24 µM
COc1ccc2ccc(OC)c(CNCCCCCCNCc3c(OC)ccc4ccc(OC)cc34)c2c1.CS(=O)(=O)O [TCMDC-137796] | 1.21 µM |  |  | 68.84% | 3.31 µM | 0.7 µM |  |  |  | 
COc1ccc(CNC2Cc3ccccc3C2)cc1-c1ccc(S(=O)(=O)NCCN2CCCC2)cc1.O=C(O)C(F)(F)F [TCMDC-132248] |  |  | 1.99 µM |  |  |  | 20.60% |  | 0.58 µM | 5.89 µM
CN1CCN(CCCN(Cc2cccc(-c3ccc(CNC4CCCC4)cc3)c2)C(=O)/C=C/c2ccccc2)CC1.O=C(O)C(F)(F)F [TCMDC-140544] | 1.36 µM |  |  | 0.64% | 7.70 µM | 0.75 µM |  |  |  | 
CCCCOc1ccc(CNCCCCCCNCc2ccc(OCCCC)c3ccccc23)c2ccccc12.CS(=O)(=O)O [TCMDC-137281] | 0.4 µM |  |  | 94.34% | 2.29 µM | 1.13 µM |  |  |  | 
Fc1ccc2[nH]c(-c3ccc(-c4ccc(CN5CCC(CCN6CCCCC6)CC5)cc4)cc3)nc2c1.O=C(O)C(F)(F)F [TCMDC-133924] |  |  | 1.7 µM |  |  |  | 11.89% |  | 0.13 µM | 3.94 µM
C#CCOc1ccc2ccccc2c1CNCCCCCCNCc1c(OCC#C)ccc2ccccc12.CS(=O)(=O)O [TCMDC-137838] | 1.05 µM |  |  | 77.84% | 2.92 µM | 0.78 µM |  |  |  | 
Cc1cc(OCCN2CCCCC2)ccc1NC(=O)c1cccc2c(=O)n(Cc3ccc(Cl)cc3)cnc12 [TCMDC-136727] | 1.4 µM |  |  | 13.25% | 4.17 µM | 1.05 µM |  |  |  | 
Clc1ccc(Nc2nc3ccc(Cl)cc3nc2Nc2ccc(Cl)cc2)cc1 [TCMDC-137772] | 1.91 µM |  |  | 27.62% | 7.86 µM | 0.13 µM |  |  |  | 
CS(=O)(=O)O.FC(F)(F)COc1ccc(CNCCCCCCNCc2ccc(OCC(F)(F)F)c3ccccc23)c2ccccc12 [TCMDC-137853] | 0.63 µM |  |  | 94.02% | 2.46 µM | 0.4 µM |  |  |  | 
COc1ccc(CNC2Cc3ccccc3C2)cc1-c1ccc(S(=O)(=O)NCCN2CCCC2)s1.O=C(O)C(F)(F)F [TCMDC-132258] |  |  | 1.39 µM |  |  |  | 59.91% |  | 0.19 µM | 5.31 µM

Continued, in another order:

IC50 [1] | IC50 ([1]; P. falciparum female gametocyte activation assay) | IC50 [1, 7] | SMILES | Gametocytes mean ATP inhibition at 2µM (%) [2] | HepG2 cells mean TOX50 ([3]; mean) | IC50 [4, 5] | Gametocytes mean ATP inhibition at 2µM [2] | HepG2 cells mean TOX50 ([3]; mean; HepG2 cells) | IC50 [4, 6] | HepG2 cells mean TOX50 ([3]; HepG2 cells; mean)
 | 0.36 µM |  | O=c1c(NCCCN(Cc2ccc(F)cc2)c2ccccn2)c(NCc2cccnc2)c1=O [TCMDC-142311] |  |  |  | 58.25% | >100 µM | 0.06 µM | 
1.91 µM |  |  | CN1CCN(CCCNCc2cccc(-c3ccc(CNCCc4ccccc4)cc3)c2)CC1 [TCMDC-140643] | 22.49% | 7.92 µM | 0.78 µM |  |  |  | 
 |  | 1.36 µM | CN(CCc1ccccc1)c1ncc(-c2cccc(CNCCC3CCCN3C)c2)cn1 (stereo not shown) [TCMDC-133143] |  |  |  | 11.85% |  | 0.87 µM | 2.88 µM
0.59 µM |  |  | COC(=O)c1ccc(-c2ccc(-c3cccnc3)cc2C)cc1 [TCMDC-139074] | 88.85% | 3.63 µM | 0.66 µM |  |  |  | 
2.01 µM |  |  | Nc1nc(N)c2c(ccc3c2ccn3Cc2ccc(-c3ccccc3)cc2)n1 [TCMDC-137813] | 26.93% | 1.16 µM | 0.05 µM |  |  |  | 
 |  | 0.67 µM | COc1ccc2nc3cc(Cl)ccc3c(N)c2c1.Cl [TCMDC-125835] |  |  |  | 101.44% |  | 0.17 µM | 1.57 µM
 |  | 1.48 µM | Cc1ccnc(NC(c2ccc(Cl)c([N+](=O)[O-])c2)c2ccc3cccnc3c2O)c1 (stereo not shown) [TCMDC-123691] |  |  |  | 95.66% |  | 0.93 µM | 23.45 µM
 |  | 1.25 µM | Cn1c(Sc2ncnc3sccc23)nc2ccccc21 [TCMDC-124514] |  |  |  | 17.03% |  | 0.19 µM | >100 µM
1.8 µM |  |  | C=C[C@H]1CN(CCCCCCC)CC[C@H]1CCNc1ccnc2ccc(OC)cc12 [TCMDC-139204] | 31.13% | 2.24 µM | 0.06 µM |  |  |  | 
0.58 µM |  |  | c1ccc(-c2nc(Nc3nc4ccccc4[nH]3)[nH]c2-c2ccccc2)cc1 [TCMDC-139099] | 51.90% | 10.98 µM | 0.62 µM |  |  |  | 
 |  | 0.88 µM | CC(C)C1=CC(=NOS(=O)(=O)c2ccccc2)C=C(C(C)C)C1=O [TCMDC-124172] |  |  |  | 65.50% |  | 0.71 µM | 21.70 µM
 |  | 1.3 µM | Br.CCc1c(CCNCCCCCCNCCc2ccc(Br)cc2)ccc(O)c1O [TCMDC-132044] |  |  |  | 6.14% |  | 0.9 µM | 7.96 µM
1.13 µM |  |  | COc1ccccc1-c1nc2c(ccc3nc(N)nc(N)c32)[nH]1 [TCMDC-137976] | 85.21% | 2.87 µM | 0.18 µM |  |  |  | 
 |  | 1.19 µM | Cn1c(Nc2cc(C(C)(C)C)on2)nc2cc(Nc3ccnc(Nc4cccc(S(=O)(=O)N5CCOCC5)c4)n3)ccc21 [TCMDC-134098] |  |  |  | 17.18% |  | 0.53 µM | 8.13 µM
0.86 µM |  |  | COc1cc(NCCCNCc2cn(Cc3cc(Br)cc(Br)c3)c3ccccc23)nc2ccccc12 [TCMDC-140677] | 11.13% | 3.94 µM | 0.19 µM |  |  |  | 
 |  | 1.09 µM | Cc1c2ccncc2c(C)c2c1[nH]c1cc(Cc3ccccc3)c(O)cc12 [TCMDC-132053] |  |  |  | -3.89% |  | 0.15 µM | 1.23 µM
0.98 µM |  |  | CC(=O)c1ccc2nc[nH]c(=O)c2c1 [TCMDC-138172] | 67.05% | 6.24 µM | 0.72 µM |  |  |  | 
